Consider ten compounds from patent US20250180508A1, “QUANTITATIVE LIPIDOMIC ANALYSIS, METHODS AND USES THEREOF” (McMaster University, priority 2023, published 2025).

The nature of data set [1]: Targeted plasma PC analysis by MSI-NACE-MS in placebo-controlled EPA or DHA (~3 g/day) trial over 90 days. Format: in vivo, human. As to conditions: change in plasma PC 36:5 + PC 38:6 from baseline, mean ± standard deviation. An excerpt:
This study was approved by the Research Ethics Board at the University of Guelph. Participant characteristics (sex, age, BMI etc.) and blood draws for O3I assessment were obtained for all participants (n=83) on study day visits. Purified EPA (KD-PUR EPA700TG) and DHA (KD-PUR DHA700TG) oils, as well as OO, were obtained from KD Pharma (Bexbach, Germany) with EPA and DHA in their triglyceride forms. […] All capsules contained 0.20% vol. tocopherol to prevent oxidation of polyunsaturated lipids. Exclusion criteria included use of FO supplements within the previous 3 months, >2 servings of fish/seafood or other omega-3 FA-rich products per week, prescribed medication use (except oral contraceptives), current smoking and history of cardiovascular disease. Participants were assigned via block randomization with stratification by sex to one of three treatment arms, namely OO supplement (n=27), EPA supplement (n=28) and DHA supplement (n=28). Participants were instructed to maintain regular exercise and dietary habits throughout the study. After overnight fasts, participants were subject to blood sampling at the Human Nutraceutical Research Unit at the University of Guelph before (baseline) and after (endpoint) of the 90-day intervention period. Blood was collected into EDTA-treated vacutainers was used to isolate plasma and erythrocytes. Samples were separated by centrifugation at 700×g at 4° C. for 15 min. […] In this case, the O3I was calculated by taking the sum of EPA and DHA relative to the sum of 15 saturated, monosaturated and polyunsaturated FAs in fasting plasma samples.
(positive ion mode) or FA 14:0[D27]

The conditions of data set [2]: in vivo.
Source text: (§1) In the first discovery cohort, fasting serum samples were collected from participants in a randomized, double-blinded, placebo-controlled intervention study that investigated the effects of FO supplementation on attenuating skeletal muscle disuse atrophy following leg immobilization (84). […] Briefly, this study comprised a cohort of healthy young women with a mean age of 22 years (range: 19-31 years) and BMI of 24 kg/m^2 (range: 18-26 kg/m^2) recruited locally from the Hamilton area. All participants received either a high-dose FO (3.0 g EPA and 2.0 g DHA daily; n=9) or a placebo control based on an isoenergetic and volume equivalent sunflower oil (SO) daily (n=9). Repeat fasting serum samples were collected from participants at baseline and after 28, 42 and 56 days of the intervention. All serum samples were then stored frozen at −80° C.
(§2) Fasting serum and plasma samples were subject to a two-step chemical derivatization protocol using 9-fluorenylmethyoxycarbonyl chloride (FMOC) and 3-methyl-1-p-tolyltriazene (FMOC/MTT) as described in example 1. This reaction was introduced as a more convenient alternative to diazomethane to improve separation resolution and ionization efficiency by converting zwitter-ionic PL species that co-migrate close to the electroosmotic flow (EOF) into methylated phosphatidylcholines (PCs) and sphingomyelins (SMs) with a permanent positive charge. Briefly, in a glass sample vial, a 50 μL aliquot of serum/plasma sample was subject to a methyl-tert-butyl ether (MTBE) extraction, where 100 μL of methanol with 0.01% vol of BHT as antioxidant, and PC 16:0[D62] as internal standard were first added, and samples then mixed to induce protein precipitation. Next, 250 μL of MTBE was added and mixed prior to adding 100 μL of deionized water to induce phase separation. Samples were then centrifuged at 4000 g at 4° C. where then 200 μL of the organic layer was transferred into a new glass vial and dried down. Next, 100 μL of 0.85 mmol/L FMOC in chloroform containing PC 18:0[D70] as a second internal standard was added to dried serum/plasma extracts and mixed for 5 min at room temperature before drying down again. Next, 50 μL of MTBE containing 450 mmol/L of MTT was added to the glass vial with the lid sealed with Teflon tape. This vessel was then heated to 60° C. for 60 min.
A short description of data set [3]: Omega-3 index (O3I) from erythrocyte PL FAMEs by GC-FID, EPA or DHA trial. Format: in vivo, human. As to conditions: for O3I (Post): 90-day period; for Average O3I status after supplementation: high-dose intake, after 90 days, both sexes. An excerpt: This study was approved by the Research Ethics Board at the University of Guelph. Participant characteristics (sex, age, BMI etc.) and blood draws for O3I assessment were obtained for all participants (n=83) on study day visits. Purified EPA (KD-PUR EPA700TG) and DHA (KD-PUR DHA700TG) oils, as well as OO, were obtained from KD Pharma (Bexbach, Germany) with EPA and DHA in their triglyceride forms. The FA content of these supplements was previously reported to be 75.7%±0.01% for oleic acid (18:1) in the OO supplement, 74.7%±0.09% EPA and 0.55%±0.01% DHA in the EPA supplement, and 72.3%±1.3% DHA and 1.05+0.11% EPA in the DHA supplement (91). All capsules contained 0.20% vol. tocopherol to prevent oxidation of polyunsaturated lipids. Exclusion criteria included use of FO supplements within the previous 3 months, >2 servings of fish/seafood or other omega-3 FA-rich products per week, prescribed medication use (except oral contraceptives), current smoking and history of cardiovascular disease. Participants were assigned via block randomization with stratification by sex to one of three treatment arms, namely OO supplement (n=27), EPA supplement (n=28) and DHA supplement (n=28). Participants were instructed to maintain regular exercise and dietary habits throughout the study. After overnight fasts, participants were subject to blood sampling at the Human Nutraceutical Research Unit at the University of Guelph before (baseline) and after (endpoint) of the 90-day intervention period. Blood was collected into EDTA-treated vacutainers was used to isolate plasma and erythrocytes. Samples were separated by centrifugation at 700×g at 4° C. for 15 min. A similar protocol was performed for FAME analysis from erythrocyte PL extracts following fractionation and saponification using GC-FID with normalization to heptadecanoic acid as internal standard (92). In this case, the O3I was calculated by taking the sum of EPA and DHA relative to the sum of 15 saturated, monosaturated and polyunsaturated FAs in fasting plasma samples.

A short description of data set [4]: Pooled sub-group untargeted serum lipid profiling by MSI-NACE-MS, high-dose FO supplementation vs placebo/baseline. As to conditions: pooled serum extracts; for Fold-change (average fold-change in ion response for serum lipid following FO supplementation to baseline): high-dose FO (EPA 3 g/day + DHA 2 g/day) vs baseline, underivatized, negative ion mode; for Change in serum lipid response following FO supplementation (in words): high-dose FO vs baseline/placebo, MSI-NACE-MS positive or negative ion mode.
Source text: as §1, §2

Where [5] appears, read: change from baseline, 3.0 g/day, in %.
Where [6] appears, read: change in erythrocyte PL membrane derived O3I from baseline, females (F), mean ± standard deviation.
Setting [7] is: change in erythrocyte PL membrane derived O3I from baseline, males (M), mean ± standard deviation.
[8] abbreviates: difference in O3I status from baseline, similar dose of EPA or DHA.

Values joined by “and” are separate entries in the source; they are usually repeats but may differ in a detail not shown here. Equal entries are not always repeated. Where two headings read alike, the source gives them in different places.

Regarding `CC/C=C\C/C=C\C/C=C\C/C=C\C/C=C\C/C=C\CCC(=O)O` [DHA, docosahexaenoic acid], the “Δ(PC 36:5 + PC 38:6)” value in data set [1] (females (F)) is 26.11 ± 16.15; in data set [1] (males (M)), 25.80 ± 20.88. Moreover, the “Change in serum lipid response following FO supplementation (in words)” value (from here on “Change … (in words)”) in data set [2] is given as “more modest increase”. In addition, the “Greater increase in O3I from baseline (relative efficacy) as compared to EPA” value in data set [3] (DHA vs EPA at the same dose level) was 63% and 64%. Besides, the “O3I (Post)” value in data set [3] (Female, 3.0 g/day) is listed as 8.04 ± 1.34; in data set [3] (Male, 3.0 g/day), 8.73 ± 0.97. Also, the ΔO3I in data set [3] (setting [5]) was 4.90 ± 1.33; in data set [3] (setting [6]), 4.31 ± 1.26; in data set [3] (setting [7]) it was 5.57 ± 1.10; in data set [3] (setting [8]), 4.90±1.33%. Also, in data set [3], the “Average O3I status after supplementation” value came out at 6.49±1.17%.
On to `CC/C=C\C/C=C\C/C=C\C/C=C\C/C=C\CCCC(=O)O` [EPA, eicosapentaenoic acid], for which the “Fold-change (average fold-change in ion response for serum lipid following FO supplementation to baseline)” value (from here on “Fold-change”) in data set [4] was found to be 4.16. Further, the “Change … (in words)” value in data set [4] is given as “more modest increase”. Also, the “Δ(PC 36:5 + PC 38:6)” value in data set [1] (females (F)) is 33.71 ± 16.15; in data set [1] (males (M)), 19.30 ± 14.26. Besides, the “O3I (Post)” value worked out at 6.75 ± 1.20 in data set [3] (Female, 3.0 g/day) and 6.23 ± 1.10 in data set [3] (Male, 3.0 g/day). Further, the ΔO3I in data set [3] (setting [5]) is 2.99 ± 1.19; in data set [3] (setting [6]), 3.14 ± 1.25; in data set [3] (setting [7]) it was 2.83 ± 1.14; in data set [3] (setting [8]) it was 2.99 ± 1.19%. The “Average O3I status after supplementation” value in data set [3] is 8.30±1.21%.
Turning to `CCCCCCCCCCCC(=O)O` [FA 12:0], the “Fold-change” value in data set [4] is reported as 0.86.
The same measure, in the same setting: as for `CCCCCCCCCCCCCC(=O)O` [FA 14:0], the figure is 0.60; as for `CCCCCCCCCCCCCCC(=O)O` [FA 15:0], 0.85.
On to `CCCCCCCCCCCCCCCCC(=O)O` [FA 17:0], for which, in data set [4], the “Fold-change” value is on record as 0.85.
As to `CCCCCCCCCCCCCCCCCC(=O)O` [FA 18:0, stearic acid], the “Fold-change” value in data set [4] came out at 0.82.
Same read-out and setting: as for `CCCCCCCC/C=C\CCCCCCCC(=O)O` [FA 18:1, oleic acid], the figure is 0.83.
For the compound PE 38:5, in data set [4], the “Fold-change” value was 0.49 and the “Change … (in words)” value is reported as “did not exhibit increases”.
Consider docasapentaenoic acid [FA 22:5], for which, in data set [4], the “Fold-change” value is on record as 0.57 and the “Change … (in words)” value is listed as “did not respond to supplementation”.
